Results: US8026251B2, “Huperzine A and its derivatives as analgesic agents” (priority 2005, dated 2011)

Columns and labels:
[1] = system: mice; experiment: Hot plate test (pain threshold, mice); assay type: in vivo, Kunming mice; settings: x ± s, n = 10; for Pain thresholds before administration: hot plate 55°C, baseline before administration; for Pain thresholds after administration at 30 min / Pain thresholds after administration at 60 min / Pain thresholds after administration at 120 min / Pain thresholds after administration at 180 min / Pain thresholds after administration at 240 min: hot plate
Experimental: Kunming mice, grade 2, female, weight of 20±2 g, purchased from the Division of Laboratory Animals, Department of Medical Sciences of Peking University, animal license No.: SCX Jing 2002-0001.
1.2.1 Solutions of huperzine A and huperzine A derivatives in normal saline water were prepared for stomach perfusion of mice.
1.2.2 Solutions of bucinnazine hydrochloride tablets, 30 mg/tablet, manufactured by Tianjin Lisheng Pharmaceutical Factory, approval No.: 0201001, in normal saline solution were prepared at a concentration of 1.5 mg/ml for stomach perfusion of mice.
A water bath was heated to a constant temperature of 55±0.5° C. The bottom of a metal plate was placed in contact with water surface. A mouse was placed on the hot plate and a timer was activated. The timer was deactivated when the mouse began licking its rear feet. The measured time was taken as the pain threshold. The pain threshold was measured two times for each mouse, and those mice whose average pain threshold was less than 30 s were qualified for the experiment.
Qualified mice were randomly divided into groups of 10. At first the pain threshold before administration of a drug was measured. Then drugs were administered as identified in Table 1. The administration volume was 0.2 ml per each 10 g of weight. Normal saline solution was administered to the control group. After administration, the pain threshold was measured at different time periods post-administration. A statistical t-test was calculated of the group interval, based on the test data.

[2] = system: migraine; experiment: Treatment of migraine with oral huperzine A (clinical cases); assay type: in vivo, human; settings: for Time from administration until headache completely disappeared: two tablets (50 μg/tablet) oral on occurrence of migraine
Experimental: Test 2: Treatment of Migraine with Oral Huperzine A
Drug: Huperzine A Tablet (50 μg/tablet, manufactured by Henan Zhulin Zhongsheng Pharmaceutical Factory.)
Previously treated with bufferin plus, but recently reported that analgesic effects of bufferin plus have weakened.
Methods: On occurrence of migraine pains (8 times within a month), two tablets of huperzine A were administered. Within 20 minutes from administration, the headache has completely disappeared.
Patient: with a medical history of migraine of 2 years. Previously treated with ergotamine, but recently reported that analgesic effects of ergotamine have weakened.
Methods: On occurrence of migraine pains (10 times within a month), two tablets of huperzine A were administered. Within 30 minutes from administration, the headache has completely disappeared.
Patient: with a medical history of migraine of 3 years, occurring at a frequency of about 8-12 times per month.
Methods: One tablet of huperzine A was administered per day orally.

C/C=C1\[C@H]2C=C(C)C[C@]1(NC(=O)OCC(C)C)c1ccc(=O)[nH]c1C2 [Example 7, (5R,9R,11E)-5-(2-methylpropoxycarbonylamino)-11-ethylidene-5,6,9,10-tetrahydro-7-methyl-5,9-methanocycloocta[b]pyridin-2(1H)-one]
Pain thresholds before administration ([1]; group later dosed 0.6 mg/kg by stomach perfusion): 15.8 ± 3.97 s
Pain thresholds after administration at 30 min ([1]; 0.6 mg/kg stomach perfusion): 28.5 ± 2.55 s
Pain thresholds after administration at 60 min ([1]; 0.6 mg/kg stomach perfusion): 30.1 ± 6.90 s
Pain thresholds after administration at 120 min ([1]; 0.6 mg/kg stomach perfusion): 27.7 ± 4.49 s
Pain thresholds after administration at 180 min ([1]; 0.6 mg/kg stomach perfusion): 23.1 ± 2.41 s

C/C=C1\[C@H]2C=C(C)C[C@]1(N)c1ccc(=O)[nH]c1C2 [Huperzine A, (5R,9R,11E)-5-amino-11-ethylidene-5,6,9,10-tetrahydro-7-methyl-5,9-methanocycloocta[b]pyridin-2(1H)-one]
Pain thresholds before administration ([1]; group later dosed 0.2 mg/kg by stomach perfusion): 14.2 ± 4.49 s
Pain thresholds before administration ([1]; group later dosed 0.4 mg/kg by stomach perfusion): 15.3 ± 2.86 s
Pain thresholds after administration at 30 min ([1]; 0.2 mg/kg stomach perfusion): 13.3 ± 4.05 s
Pain thresholds after administration at 60 min ([1]; 0.2 mg/kg stomach perfusion): 14.5 ± 5.08 s
Pain thresholds after administration at 120 min ([1]; 0.2 mg/kg stomach perfusion): 14.2 ± 5.20 s
Pain thresholds after administration at 180 min ([1]; 0.2 mg/kg stomach perfusion): 13.3 ± 3.68 s
Pain thresholds after administration at 240 min ([1]; 0.2 mg/kg stomach perfusion): 14.6 ± 2.84 s
Pain thresholds after administration at 30 min ([1]; 0.4 mg/kg stomach perfusion): 28.4 ± 8.12 s
Pain thresholds after administration at 60 min ([1]; 0.4 mg/kg stomach perfusion): 31.7 ± 10.56 s
Pain thresholds after administration at 120 min ([1]; 0.4 mg/kg stomach perfusion): 27.6 ± 8.22 s
Pain thresholds after administration at 180 min ([1]; 0.4 mg/kg stomach perfusion): 25.5 ± 8.88 s
Pain thresholds after administration at 240 min ([1]; 0.4 mg/kg stomach perfusion): 27.8 ± 5.94 s
Time from administration until headache completely disappeared ([2]; Case 1, migraine patient): ≤ 20 min
Analgesic effects over a period of one month ([2]; Case 1, two tablets (50 μg/tablet) oral per attack): Good analgesic effects
Side effects ([2]; Case 1, two tablets (50 μg/tablet) oral per attack, 8 times within a month): Minor side effects
Time from administration until headache completely disappeared ([2]; Case 2, migraine patient): ≤ 30 min
Analgesic effects over a period of one month ([2]; Case 2, two tablets (50 μg/tablet) oral per attack): Good analgesic effects
Side effects ([2]; Case 2, two tablets (50 μg/tablet) oral per attack, 10 times within a month): No side effects
Migraine attacks over the period of 1 month (prevention) ([2]; Case 3, migraine about 8-12 times per month, one tablet (50 μg) per day orally): did not complain of migraine attacks
Effect of long-term administration on migraine attacks ([2]; long-term administration, summary statement): prevents migraine attacks
Effect on migraine in clinical studies ([2]; oral administration, summary statement): alleviates and/or cures migraine
